This series is classed as in vivo, Rattus norvegicus. The settings on record: about 3.4 mg difethialone per kg per os (homo/hetero 4/6, each racemic), mean of six male and female rats, daily vitamin K1. The procedure:
C. Extraction of Difethialone from the Liver of Rats Treated with Difethialone for the Purpose of Analysis of the Various Enantiomers of Difethialone
About 0.525 g (±0.025 g) of rat liver is weighed out accurately and placed in a 50 mL polypropylene tube. 10 mL of acetone are added and the suspension is homogenized using an Ultra-Turrax® homogenizer/disperser for a time of about 30 seconds. The homogenizer/disperser shaft is rinsed with hot water and then twice with 20 mL of acetone in a polypropylene tube. The homogenate is centrifuged for 5 minutes at a centrifugation speed of 3000 rpm (revolutions per minute). The supernatant is collected and transferred into a test tube. The sample is subjected to evaporation under a stream of nitrogen (N2) at a temperature of 40° C. so as to form a dry extract.
1 mL of acetonitrile is added to the tube containing the dry extract so as to dissolve it. The acetonitrile solution is washed twice successively with 1 mL of hexane. The lipid-free extract is dried under a stream of nitrogen (N2) at a temperature of 40° C. and is then taken up in 0.5 mL of methanol and dissolved by vortex stirring. 0.5 mL of ultra-pure (Milli-Q) water is then added. The sample is vortex-homogenized.
1 mL of dichloromethane (CH2Cl2), then 1 mL of methanol (CH3OH), then 1 mL of ultra-pure (Milli-Q) water are passed through an Oasis HLB 1 cc cartridge (WAT094225, Waters). The lipid-free liver extract (1 mL MeOH/Milli-Q H2O) containing difethialone is then loaded onto the top of the preconditioned cartridge. The liver extract penetrates through the cartridge by gravity on contact with the solid phase of the cartridge. 1 mL of washing solution formed from methanol (CH3OH) and ultra-pure water (H2O) in a 90/10 volume proportion is loaded onto the top of the cartridge. The cartridge is dried by suction under vacuum connected to the bottom of the cartridge. 1 mL of eluting solution formed from dichloromethane (CH2Cl2) and methanol (CH3OH) in a 90/10 volume proportion is then loaded onto the top of the cartridge and an eluate comprising difethialone is collected at the bottom of the cartridge. The solvent of the eluate is evaporated off under a stream of nitrogen (N2) at a temperature of 40° C. The sample is taken up in 0.5 mL of acetonitrile (NC-CH3) and the acetonitrile solution containing difethialone is filtered through a 0.2 μm filter.
The acetonitrile solution containing difethialone is analysed by high-pressure liquid chromatography on a LUX® Cellulose-3 chiral column (150×2 mm, particle size of 3 μm) (Phenomenex, Le Pecq, France) as described in point A2) above. The retention time value (t1) of the laevorotatory enantiomer of said homo-stereoisomer of difethialone according to the invention is between 7.8 minutes and 8.4 minutes (the maximum value of the peak corresponding to the […] enantiomer of said homo-stereoisomer being about 8.1 minutes, as described in FIG. 1), depending on the operating conditions, especially depending on the column temperature conditions. The retention time value (t4) of the dextrorotatory enantiomer of said homo-stereoisomer is between 13.3 minutes and 15.1 minutes (the maximum value of the peak corresponding to the […] enantiomer of said homo-stereoisomer being about 14.4 minutes), depending on the operating conditions, especially depending on the column temperature conditions. The retention time value (t3) of the dextrorotatory enantiomer of said hetero-stereoisomer of difethialone is between 11.2 minutes and 12.3 minutes (the maximum value of the peak corresponding to the dextrorotatory enantiomer of said hetero-stereoisomer being about 11.7 minutes), depending on the operating conditions, especially depending on the column temperature conditions. […]

Read-outs that look alike come from different tables or passages of the source.

For `O=c1sc2ccccc2c(O)c1C1CC(c2ccc(-c3ccc(Br)cc3)cc2)Cc2ccccc21` (centres unmarked) [DFN-Hetero-laevo], the Hepatic content reads like this: (4 hours after tube-feeding) 5380.5 ng/g; (9 hours after tube-feeding) 5869.5 ng/g; (24 hours after tube-feeding) 3613.5 ng/g; (48 hours after tube-feeding) 2804 ng/g; (120 hours after tube-feeding) 1211 ng/g; (168 hours after tube-feeding) 392.5 ng/g. The compound also displayed a Hepatic content (216 hours after tube-feeding) of 545 ng/g.

Regarding `O=c1sc2ccccc2c(O)c1C1CC(c2ccc(-c3ccc(Br)cc3)cc2)Cc2ccccc21` (centres unmarked) [DFN-Hetero-dextro], the Hepatic content reads like this: (4 hours after tube-feeding) 10589.5 ng/g; (9 hours after tube-feeding) 12155.5 ng/g; (24 hours after tube-feeding) 8102 ng/g; (48 hours after tube-feeding) 7974.5 ng/g; (120 hours after tube-feeding) 5431.5 ng/g; (168 hours after tube-feeding) 3011 ng/g. Also, the Hepatic content (216 hours after tube-feeding) turned out to be 4030.5 ng/g.

For the origin of these results see patent US20190016697A1, “CONFIGURATIONAL STEREOISOMER OF DIFETHIALONE, COMPOSITION AND RODENTICIDE BAIT COMPRISING SAME, AND METHOD FOR CONTROLLING TARGET RODENT PESTS” (priority 2015, published 2019).
